The NIST ThermoML archive (doi:10.1021/je9008969)

Columns and labels:
[1] = cn = amount concentration of the nth substance listed, in mol/dm3; conditions: 298.15 K, 101 kPa, Liquid, Alternating current cell with electrodes
[2] = Liquid; Distillation
[3] = mn = molality of the nth substance listed, in mol/kg; conditions: 298.15 K, 101 kPa, Liquid, Alternating current cell with electrodes

CCCCCC[N+](CC)(CC)CC.[O-][Cl+3]([O-])([O-])[O-] [N,N,N-triethyl-1-hexanaminium perchlorate] + CC(=O)CC(C)C
[1]
Conditions	molar conductivity [S·m2/mol]
c1 = 9.437e-05	0.00808
c1 = 0.0001362	0.00766
c1 = 0.0001739	0.00732
c1 = 0.0002195	0.00695
c1 = 0.0002862	0.00655
c1 = 0.0003746	0.00614
c1 = 0.0004856	0.00574
c1 = 0.0006345	0.00534
c1 = 0.000817	0.00498
c1 = 0.001056	0.00462
c1 = 0.001385	0.00426
c1 = 0.00181	0.00392
c1 = 0.002334	0.00362
c1 = 0.003049	0.00333
c1 = 0.003975	0.00307

CCCCCC[N+](CCCCCC)(CCCCCC)CCCCCC.[O-][Cl+3]([O-])([O-])[O-] [tetrahexylammonium perchlorate] + CC(=O)CC(C)C
[1]
Conditions	molar conductivity [S·m2/mol]
c1 = 9.876e-05	0.00727
c1 = 0.0001295	0.00705
c1 = 0.0001762	0.00672
c1 = 0.0002207	0.00645
c1 = 0.0002798	0.00613
c1 = 0.0003687	0.00578
c1 = 0.0004788	0.00543
c1 = 0.0006209	0.00509
c1 = 0.0008088	0.00475
c1 = 0.001056	0.00441
c1 = 0.00138	0.00409
c1 = 0.001782	0.0038
c1 = 0.002321	0.00351
c1 = 0.003006	0.00324
c1 = 0.003917	0.00299

CCCCCCCCCCCCCCCC[n+]1ccccc1.[O-][Cl+3]([O-])([O-])[O-] [1-hexadecylpyridinium perchlorate] + CC(=O)CC(C)C
[1]
Conditions	molar conductivity [S·m2/mol]
c1 = 9.238e-05	0.00688
c1 = 0.0001329	0.0064
c1 = 0.0001691	0.00608
c1 = 0.0002261	0.00565
c1 = 0.0002954	0.00527
c1 = 0.0004138	0.0048
c1 = 0.0005388	0.00444
c1 = 0.0007214	0.00406
c1 = 0.0009671	0.0037
c1 = 0.001303	0.00335
c1 = 0.001719	0.00306
c1 = 0.002318	0.00277
c1 = 0.00312	0.0025
c1 = 0.00417	0.00226
c1 = 0.005569	0.00205

CC(=O)CC(C)C [4-methylpentan-2-one]
Conditions	Normal boiling temperature [°C]
[2]	114.20

CCCCCCCCCCCCCCCCCC[N+](C)(C)C.[O-][Cl+3]([O-])([O-])[O-] [N,N,N-trimethyl-1-octadecanaminium perchlorate] + CC(=O)CC(C)C
[1]
Conditions	molar conductivity [S·m2/mol]
c1 = 0.0001049	0.00634
c1 = 0.0001371	0.00601
c1 = 0.0001741	0.00568
c1 = 0.0002263	0.00531
c1 = 0.0002892	0.00497
c1 = 0.0003809	0.00458
c1 = 0.0004892	0.00425
c1 = 0.0006311	0.00392
c1 = 0.0008148	0.00361
c1 = 0.001062	0.0033
c1 = 0.001386	0.00302
c1 = 0.001802	0.00276
c1 = 0.002337	0.00251
c1 = 0.003032	0.00229

CC[N+](CC)(CC)CC.[O-][Cl+3]([O-])([O-])[O-] [tetraethylammonium perchlorate] + CC(=O)CC(C)C
[1]
Conditions	molar conductivity [S·m2/mol]
c1 = 1.622e-05	0.00917
c1 = 2.705e-05	0.00898
c1 = 3.499e-05	0.00888
c1 = 4.526e-05	0.00874
c1 = 5.823e-05	0.00852
c1 = 7.469e-05	0.0083
c1 = 9.761e-05	0.00812

CCCCCCCCCCCCCCCC[N+](C)(C)C.[O-][Cl+3]([O-])([O-])[O-] [N,N,N-trimethyl-1-hexadecanaminium perchlorate] + CC(=O)CC(C)C
[1]
Conditions	molar conductivity [S·m2/mol]
c1 = 0.0001172	0.00637
c1 = 0.0001513	0.006
c1 = 0.0002096	0.00553
c1 = 0.0002636	0.00519
c1 = 0.0003584	0.00476
c1 = 0.0005071	0.00427
c1 = 0.0006588	0.00394
c1 = 0.0008706	0.00359
c1 = 0.001168	0.00326
c1 = 0.001547	0.00295
c1 = 0.002106	0.00265
c1 = 0.002797	0.0024
c1 = 0.00376	0.00216
c1 = 0.005012	0.00194
c1 = 0.006683	0.00175

CCCC[n+]1ccccc1.[O-][Cl+3]([O-])([O-])[O-] [1-butylpyridinium perchlorate] + CC(=O)CC(C)C
[1]
Conditions	molar conductivity [S·m2/mol]
c1 = 0.0001223	0.00753
c1 = 0.0001384	0.00709
c1 = 0.0001791	0.00669
c1 = 0.0002332	0.00627
c1 = 0.0003126	0.00579
c1 = 0.0004224	0.00533
c1 = 0.0005585	0.0049
c1 = 0.0007544	0.00446
c1 = 0.001004	0.00408
c1 = 0.001345	0.00369
c1 = 0.001798	0.00335
c1 = 0.002419	0.00303
c1 = 0.00324	0.00274
c1 = 0.004348	0.00248
c1 = 0.005787	0.00225

CCCC[N+](CCCC)(CCCC)CCCC.[O-][Cl+3]([O-])([O-])[O-] [tetrabutylammonium perchlorate] + CC(=O)CC(C)C
[1]
Conditions	molar conductivity [S·m2/mol]
c1 = 9.747e-05	0.00773
c1 = 0.0001341	0.00737
c1 = 0.0001902	0.00693
c1 = 0.0002367	0.00662
c1 = 0.0003186	0.00622
c1 = 0.0004325	0.00577
c1 = 0.0005781	0.00535
c1 = 0.0007683	0.00495
c1 = 0.001016	0.00457
c1 = 0.00138	0.00418
c1 = 0.001839	0.00383
c1 = 0.002457	0.00351
c1 = 0.003309	0.0032
c1 = 0.004418	0.00292
c1 = 0.005893	0.00267

CCCCCCC[N+](CCCCCCC)(CCCCCCC)CCCCCCC.[O-][Cl+3]([O-])([O-])[O-] [N,N,N-triheptylheptan-1-aminium perchlorate] + CC(=O)CC(C)C
[1]
Conditions	molar conductivity [S·m2/mol]
c1 = 7.179e-05	0.00765
c1 = 0.0001036	0.00729
c1 = 0.0001318	0.00704
c1 = 0.0001594	0.00683
c1 = 0.0002244	0.00639
c1 = 0.0002974	0.00603
c1 = 0.000405	0.00563
c1 = 0.0005438	0.00525
c1 = 0.0007266	0.00487
c1 = 0.0009775	0.0045
c1 = 0.001306	0.00414
c1 = 0.001751	0.0038
c1 = 0.002355	0.00348
c1 = 0.003149	0.00319
c1 = 0.004208	0.00292

C[N+](C)(C)C.[O-][Cl+3]([O-])([O-])[O-] [tetramethylammonium perchlorate] + CC(=O)CC(C)C
[1]
Conditions	molar conductivity [S·m2/mol]
c1 = 9.338e-06	0.0113
c1 = 1.196e-05	0.0112
c1 = 1.53e-05	0.0111
c1 = 1.98e-05	0.0108
c1 = 2.582e-05	0.0105
c1 = 3.276e-05	0.0101
c1 = 4.292e-05	0.00975
c1 = 5.528e-05	0.00934
c1 = 7.008e-05	0.00894
c1 = 9.231e-05	0.00847

CCCCC[N+](CCCCC)(CCCCC)CCCCC.[O-][Cl+3]([O-])([O-])[O-] [tetrapentylammonium perchlorate] + CC(=O)CC(C)C
[3]
Conditions	molar conductivity [S·m2/mol]
m1 = 9.66e-05	0.00743
m1 = 0.0001207	0.00719
m1 = 0.0001685	0.0068
m1 = 0.0002146	0.00647
m1 = 0.0002922	0.00606
m1 = 0.0004004	0.00562
m1 = 0.0005296	0.00524
m1 = 0.0007017	0.00487
m1 = 0.0009021	0.00468
m1 = 0.001262	0.00413
m1 = 0.001674	0.0038
m1 = 0.002257	0.00347
m1 = 0.003014	0.00318
m1 = 0.004036	0.0029
m1 = 0.0054	0.00265
